# Test system: CPA-CLP sepsis mouse model
# Experiment: Effects of LPC concentrations on mortalities/survivabilities in CPA-CLP sepsis mouse model (SEP008); s.c. 4 times 12-hr intervals from 6 hrs after CLP
# Type: in vivo, ICR mice
# Protocol: CPA is well known as an immunosuppressive agent. […] Then, the abdomen was closed following the general procedure.
# Then, body weight and mortality changes were observed.
# In the Sham and CLP control groups, 10 ml/kg of only 5% human serum albumin was subcutaneously dosed at the same intervals.
substance,measurement,setting,value
Lysophosphatidylcholine [LPC],minimal effective dose,CPA-CLP model,about 1 mg/kg
same,optimal effective dose,CPA-CLP model,10 mg/kg
same,Mortalities,"LPC 1 mpk, 1st CPA treat",0/10
same,survivabilities,"LPC 1 mpk, 1st CPA treat",100%
same,Mortalities,"LPC 1 mpk, 2nd CPA treat",0/10
same,survivabilities,"LPC 1 mpk, 2nd CPA treat",100%
same,Mortalities,"LPC 1 mpk, At CLP (day 0)",0/10
same,survivabilities,"LPC 1 mpk, At CLP (day 0)",100%
same,Mortalities,"LPC 1 mpk, Day 1",4/10
same,survivabilities,"LPC 1 mpk, Day 1",60%
same,Mortalities,"LPC 1 mpk, Day 2",2/6
same,survivabilities,"LPC 1 mpk, Day 2",40%
same,Mortalities,"LPC 1 mpk, Day 3",2/4
same,survivabilities,"LPC 1 mpk, Day 3",20%
same,Mortalities,"LPC 1 mpk, Day 4",2/2
same,survivabilities,"LPC 1 mpk, Day 4",0%
same,Mortalities,"LPC 1 mpk, Day 5",0/0
same,survivabilities,"LPC 1 mpk, Day 5",0%
same,Mortalities,"LPC 1 mpk, Day 6",0/0
same,survivabilities,"LPC 1 mpk, Day 6",0%
same,Mortalities,"LPC 1 mpk, Day 7",0/0
same,survivabilities,"LPC 1 mpk, Day 7",0%
same,Mortalities,"LPC 1 mpk, Total",10/10
same,survivabilities,"LPC 1 mpk, Total",0%
same,Mortalities,"LPC 2.5 mpk, 1st CPA treat",0/10
same,survivabilities,"LPC 2.5 mpk, 1st CPA treat",100%
same,Mortalities,"LPC 2.5 mpk, 2nd CPA treat",0/10
same,survivabilities,"LPC 2.5 mpk, 2nd CPA treat",100%
same,Mortalities,"LPC 2.5 mpk, At CLP (day 0)",0/10
same,survivabilities,"LPC 2.5 mpk, At CLP (day 0)",100%
same,Mortalities,"LPC 2.5 mpk, Day 1",2/10
same,survivabilities,"LPC 2.5 mpk, Day 1",80%
same,Mortalities,"LPC 2.5 mpk, Day 2",2/8
same,survivabilities,"LPC 2.5 mpk, Day 2",60%
same,Mortalities,"LPC 2.5 mpk, Day 3",3/6
same,survivabilities,"LPC 2.5 mpk, Day 3",30%
same,Mortalities,"LPC 2.5 mpk, Day 4",2/3
same,survivabilities,"LPC 2.5 mpk, Day 4",10%
same,Mortalities,"LPC 2.5 mpk, Day 5",1/1
same,survivabilities,"LPC 2.5 mpk, Day 5",0%
same,Mortalities,"LPC 2.5 mpk, Day 6",0/0
same,survivabilities,"LPC 2.5 mpk, Day 6",0%
same,Mortalities,"LPC 2.5 mpk, Day 7",0/0
same,survivabilities,"LPC 2.5 mpk, Day 7",0%
same,Mortalities,"LPC 2.5 mpk, Total",10/10
same,survivabilities,"LPC 2.5 mpk, Total",0%
same,Mortalities,"LPC 5 mpk, 1st CPA treat",0/10
same,survivabilities,"LPC 5 mpk, 1st CPA treat",100%
same,Mortalities,"LPC 5 mpk, 2nd CPA treat",0/10
same,survivabilities,"LPC 5 mpk, 2nd CPA treat",100%
same,Mortalities,"LPC 5 mpk, At CLP (day 0)",0/10
same,survivabilities,"LPC 5 mpk, At CLP (day 0)",100%
same,Mortalities,"LPC 5 mpk, Day 1",4/10
same,survivabilities,"LPC 5 mpk, Day 1",60%
same,Mortalities,"LPC 5 mpk, Day 2",1/6
same,survivabilities,"LPC 5 mpk, Day 2",50%
same,Mortalities,"LPC 5 mpk, Day 3",1/5
same,survivabilities,"LPC 5 mpk, Day 3",40%
same,Mortalities,"LPC 5 mpk, Day 4",1/4
same,survivabilities,"LPC 5 mpk, Day 4",30%
same,Mortalities,"LPC 5 mpk, Day 5",0/3
same,survivabilities,"LPC 5 mpk, Day 5",30%
same,Mortalities,"LPC 5 mpk, Day 6",2/3
same,survivabilities,"LPC 5 mpk, Day 6",10%
same,Mortalities,"LPC 5 mpk, Day 7",1/1
same,survivabilities,"LPC 5 mpk, Day 7",0%
same,Mortalities,"LPC 5 mpk, Total",10/10
same,survivabilities,"LPC 5 mpk, Total",0%
same,Mortalities,"LPC 10 mpk, 1st CPA treat",0/10
same,survivabilities,"LPC 10 mpk, 1st CPA treat",100%
same,Mortalities,"LPC 10 mpk, 2nd CPA treat",0/10
same,survivabilities,"LPC 10 mpk, 2nd CPA treat",100%
same,Mortalities,"LPC 10 mpk, At CLP (day 0)",0/10
same,survivabilities,"LPC 10 mpk, At CLP (day 0)",100%
same,Mortalities,"LPC 10 mpk, Day 1",1/10
same,survivabilities,"LPC 10 mpk, Day 1",90%
same,Mortalities,"LPC 10 mpk, Day 2",2/9
same,survivabilities,"LPC 10 mpk, Day 2",70%
same,Mortalities,"LPC 10 mpk, Day 3",1/7
same,survivabilities,"LPC 10 mpk, Day 3",60%
same,Mortalities,"LPC 10 mpk, Day 4",1/6
same,survivabilities,"LPC 10 mpk, Day 4",50%
same,Mortalities,"LPC 10 mpk, Day 5",1/5
same,survivabilities,"LPC 10 mpk, Day 5",40%
same,Mortalities,"LPC 10 mpk, Day 6",2/4
same,survivabilities,"LPC 10 mpk, Day 6",20%
same,Mortalities,"LPC 10 mpk, Day 7",2/2
same,survivabilities,"LPC 10 mpk, Day 7",0%
same,Mortalities,"LPC 10 mpk, Total",10/10
same,survivabilities,"LPC 10 mpk, Total",0%
same,Mortalities,"LPC 20 mpk, 1st CPA treat",0/10
same,survivabilities,"LPC 20 mpk, 1st CPA treat",100%
same,Mortalities,"LPC 20 mpk, 2nd CPA treat",0/10
same,survivabilities,"LPC 20 mpk, 2nd CPA treat",100%
same,Mortalities,"LPC 20 mpk, At CLP (day 0)",0/10
same,survivabilities,"LPC 20 mpk, At CLP (day 0)",100%
same,Mortalities,"LPC 20 mpk, Day 1",1/10
same,survivabilities,"LPC 20 mpk, Day 1",90%
same,Mortalities,"LPC 20 mpk, Day 2",1/9
same,survivabilities,"LPC 20 mpk, Day 2",80%
same,Mortalities,"LPC 20 mpk, Day 3",2/8
same,survivabilities,"LPC 20 mpk, Day 3",60%
same,Mortalities,"LPC 20 mpk, Day 4",2/6
same,survivabilities,"LPC 20 mpk, Day 4",40%
same,Mortalities,"LPC 20 mpk, Day 5",2/4
same,survivabilities,"LPC 20 mpk, Day 5",20%
same,Mortalities,"LPC 20 mpk, Day 6",0/2
same,survivabilities,"LPC 20 mpk, Day 6",20%
same,Mortalities,"LPC 20 mpk, Day 7",2/2
same,survivabilities,"LPC 20 mpk, Day 7",0%
same,Mortalities,"LPC 20 mpk, Total",10/10
same,survivabilities,"LPC 20 mpk, Total",0%
same,survival time,all the five doses of LPC in CPA-CLP mice,significantly increased

# — patent US9446061B2, “Composition containing antibiotics and lysophosphatidylcholine for boosting immunity or treatment of bacterial infections” (priority 2011, dated 2016)
